Laboratory results from PubChem BioAssay (NCI).
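GI50 is the concentration that inhibits growth by half. TGI is the concentration that stops growth completely.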

Assays:
Test in all cases: DTP human tumour cell line panel, 384-well format
786-0 renal = test system: 786-0 renal
A498 renal = test system: A498 renal
A549 NSCLC = test system: A549 NSCLC
ACHN renal = test system: ACHN renal
CAKI-1 renal = test system: CAKI-1 renal
CCRF-CEM leukemia = test system: CCRF-CEM leukemia
COLO 205 colon = test system: COLO 205 colon
DU-145 prostate = test system: DU-145 prostate
EKVX NSCLC = test system: EKVX NSCLC
HCC-2998 colon = test system: HCC-2998 colon
HCT-116 colon = test system: HCT-116 colon
HCT-15 colon = test system: HCT-15 colon
HL-60(TB) leukemia = test system: HL-60(TB) leukemia
HOP-92 NSCLC = test system: HOP-92 NSCLC
HS 578T breast = test system: HS 578T breast
HT29 colon = test system: HT29 colon
IGROV1 ovarian = test system: IGROV1 ovarian
K-562 leukemia = test system: K-562 leukemia
KM12 colon = test system: KM12 colon
LOX IMVI melanoma = test system: LOX IMVI melanoma
M14 melanoma = test system: M14 melanoma
MALME-3M melanoma = test system: MALME-3M melanoma
MCF7 breast = test system: MCF7 breast
MDA-MB-231 breast = test system: MDA-MB-231 breast
MOLT-4 leukemia = test system: MOLT-4 leukemia
NCI-H226 lung = test system: NCI-H226 lung
NCI-H23 lung = test system: NCI-H23 lung
NCI-H322M lung = test system: NCI-H322M lung
NCI-H460 NSCLC = test system: NCI-H460 NSCLC
NCI-H522 lung = test system: NCI-H522 lung
NCI/ADR-RES ovarian = test system: NCI/ADR-RES ovarian
OVCAR-3 ovarian = test system: OVCAR-3 ovarian
OVCAR-4 ovarian = test system: OVCAR-4 ovarian
OVCAR-5 ovarian = test system: OVCAR-5 ovarian
OVCAR-8 ovarian = test system: OVCAR-8 ovarian
PC-3 prostate = test system: PC-3 prostate
RPMI-8226 leukemia = test system: RPMI-8226 leukemia
SF-268 CNS = test system: SF-268 CNS
SF-539 CNS = test system: SF-539 CNS
SK-MEL-2 melanoma = test system: SK-MEL-2 melanoma
SK-MEL-28 melanoma = test system: SK-MEL-28 melanoma
SK-MEL-5 melanoma = test system: SK-MEL-5 melanoma
SK-OV-3 ovarian = test system: SK-OV-3 ovarian
SN12C renal = test system: SN12C renal
SNB-19 CNS = test system: SNB-19 CNS
SNB-75 CNS = test system: SNB-75 CNS
SR leukemia = test system: SR leukemia
SW-620 colon = test system: SW-620 colon
T-47D breast = test system: T-47D breast
TK-10 renal = test system: TK-10 renal
UACC-257 melanoma = test system: UACC-257 melanoma
UACC-62 melanoma = test system: UACC-62 melanoma

## CN(C)CCN(C)CC(C)(C)C(=O)/C=C/c1ccc(Cl)cc1
786-0 renal
  GI50: 2.91 µM
  TGI: 9.33 µM
A498 renal
  GI50: 2.78 µM
  TGI: 7.47 µM
A549 NSCLC
  GI50: 3.3 µM
  TGI: 11.1 µM
ACHN renal
  GI50: 2.02 µM
  TGI: 7.29 µM
CAKI-1 renal
  GI50: 2.92 µM
  TGI: 12 µM
CCRF-CEM leukemia
  GI50: 1.68 µM
  TGI: 3.05 µM
COLO 205 colon
  GI50: 5.88 µM
  TGI: 17.1 µM
DU-145 prostate
  GI50: 3.22 µM
  TGI: 8.86 µM
EKVX NSCLC
  GI50: 2.14 µM
  TGI: 5.07 µM
HCC-2998 colon
  GI50: 4.45 µM
  TGI: 13.7 µM
HCT-116 colon
  GI50: 2 µM
  TGI: 4.18 µM
HCT-15 colon
  GI50: 5.08 µM
  TGI: 17.8 µM
HL-60(TB) leukemia
  GI50: 1.94 µM
  TGI: 3.37 µM
HOP-92 NSCLC
  GI50: 2.09 µM
  TGI: 4.65 µM
HS 578T breast
  GI50: 2.55 µM
  TGI: 6.02 µM
HT29 colon
  GI50: 3.26 µM
  TGI: 11.8 µM
IGROV1 ovarian
  GI50: 2.53 µM
  TGI: 6.1 µM
K-562 leukemia
  GI50: 1.72 µM
  TGI: 3.44 µM
KM12 colon
  GI50: 2.45 µM
  TGI: 5.05 µM
LOX IMVI melanoma
  GI50: 0.764 µM
  TGI: 2.12 µM
M14 melanoma
  GI50: 2.07 µM
  TGI: 4.06 µM
MALME-3M melanoma
  GI50: 4.76 µM
  TGI: 14.6 µM
MCF7 breast
  GI50: 17.2 µM
  TGI: 31.2 µM
MDA-MB-231 breast
  GI50: 3.1 µM
  TGI: 8.03 µM
MOLT-4 leukemia
  GI50: 1.76 µM
  TGI: 3.2 µM
NCI-H226 lung
  GI50: 5.39 µM
  TGI: 16.2 µM
NCI-H23 lung
  GI50: 5.84 µM
  TGI: 18.2 µM
NCI-H322M lung
  GI50: 3.11 µM
  TGI: 7.72 µM
NCI-H460 NSCLC
  GI50: 2.03 µM
  TGI: 4.12 µM
NCI-H522 lung
  GI50: 1.34 µM
  TGI: 2.77 µM
NCI/ADR-RES ovarian
  GI50: 2.06 µM
  TGI: 3.98 µM
OVCAR-3 ovarian
  GI50: 1.75 µM
  TGI: 4.03 µM
OVCAR-4 ovarian
  GI50: 2.37 µM
  TGI: 5.73 µM
OVCAR-5 ovarian
  GI50: 7.14 µM
  TGI: 19.7 µM
OVCAR-8 ovarian
  GI50: 2.24 µM
  TGI: 4.8 µM
PC-3 prostate
  GI50: 2.62 µM
  TGI: 5.93 µM
RPMI-8226 leukemia
  GI50: 1.71 µM
  TGI: 3.17 µM
SF-268 CNS
  GI50: 2.39 µM
  TGI: 5.29 µM
SF-539 CNS
  GI50: 10.5 µM
  TGI: 22.4 µM
SK-MEL-2 melanoma
  GI50: 1.55 µM
  TGI: 3.32 µM
SK-MEL-28 melanoma
  GI50: 3.06 µM
  TGI: 10.2 µM
SK-MEL-5 melanoma
  GI50: 1.9 µM
  TGI: 4.08 µM
SK-OV-3 ovarian
  GI50: 2.24 µM
  TGI: 5.95 µM
SN12C renal
  GI50: 2.09 µM
  TGI: 5.98 µM
SNB-19 CNS
  GI50: 2.93 µM
  TGI: 9.62 µM
SNB-75 CNS
  GI50: 2.91 µM
  TGI: 7.32 µM
SR leukemia
  GI50: 1.42 µM
  TGI: 2.73 µM
SW-620 colon
  GI50: 2.09 µM
  TGI: 4.45 µM
T-47D breast
  GI50: 17.9 µM
  TGI: 31.9 µM
TK-10 renal
  GI50: 2.44 µM
  TGI: 6.06 µM
UACC-257 melanoma
  GI50: 2.36 µM
  TGI: 4.96 µM
UACC-62 melanoma
  GI50: 1.91 µM
  TGI: 3.75 µM
